Laboratory results taken from article PMC4270692, “Using a Non-Image-Based Medium-Throughput Assay for Screening Compounds Targeting N-myristoylation in Intracellular Leishmania Amastigotes” (PLoS Neglected Tropical Diseases, 2014).
Entries after “also recorded” stand apart in the source; their conditions may differ. Where two headings read alike, the source gives them in different places.

What was measured:
[1] = tested on: intracellular L. donovani amastigotes; assay: Intracellular amastigote assay: infected macrophages treated 72 h, saponin lysis, transformation to promastigotes, Alamar blue; format: cell-based, Leishmania donovani; settings: for EC50: Leishmania donovani, Macrophage; for Effect on intracellular amastigotes at the highest concentration tested: 45 µM, after an "activity valley" at 15 µM
[2] = tested on: extracellular L. donovani amastigotes; assay: Extracellular assay on amastigotes freshly isolated from mouse spleens, 72 h at 26°C, Alamar blue; format: cell-based, Leishmania donovani; settings: for EC50: Leishmania donovani; for Cellular (leishmanicidal) activity in words: extracellular assay
[3] = tested on: bone marrow derived macrophages
L. donovani NMT = L. donovani NMT (Leishmania donovani, UniProt D0AB09); assay: biochemical; format: biochemical
[4] = 72 h, 3-day treatment of infected bone marrow derived macrophages, mean of biological repeats, read-out: EC50 ± SD intracellular L. donovani amastigotes
[5] = Figure 3, representative dose response curve, 72 h incubation, read-out: EC50 intracellular L. donovani amastigotes, representative plot
[6] = 72 h, 3-day treatment, splenic amastigotes from Rag2−/− mice, incubation at 26°C, read-out: EC50 ± SD extracellular L. donovani amastigotes
[7] = NMT inhibitors, 72 h in infected macrophages, n.p. = not possible
[8] = 72 h, read-out: EC50 extracellular L. donovani amastigotes
[9] = NMT inhibitors, 72 h at 26°C, read-out: EC50 extracellular L. donovani amastigotes

Sequence of L. donovani NMT (D0AB09 1-421): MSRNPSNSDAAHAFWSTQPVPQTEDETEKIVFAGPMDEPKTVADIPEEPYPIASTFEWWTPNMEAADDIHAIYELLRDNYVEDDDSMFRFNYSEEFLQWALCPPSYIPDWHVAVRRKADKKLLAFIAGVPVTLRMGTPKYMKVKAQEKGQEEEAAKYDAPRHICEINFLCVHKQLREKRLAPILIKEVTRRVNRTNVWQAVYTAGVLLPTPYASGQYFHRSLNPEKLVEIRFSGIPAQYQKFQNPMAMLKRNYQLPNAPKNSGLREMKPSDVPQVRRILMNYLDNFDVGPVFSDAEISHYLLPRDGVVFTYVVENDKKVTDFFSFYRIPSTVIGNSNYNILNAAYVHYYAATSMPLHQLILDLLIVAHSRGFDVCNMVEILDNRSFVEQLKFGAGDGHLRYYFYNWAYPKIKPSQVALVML

Compound `C[C@@H]1[C@H](O)[C@@H](C)/C=C/C=C/C=C/C=C/C=C/C=C/C=C/[C@H](O[C@@H]2O[C@H](C)[C@@H](O)[C@H](N)[C@@H]2O)C[C@@H]2O[C@](O)(C[C@@H](O)C[C@@H](O)[C@H](O)CC[C@@H](O)C[C@@H](O)CC(=O)O[C@H]1C)C[C@H](O)[C@H]2C(=O)O` [Amphotericin B, amphotericin B] has an EC50 [1, 4] of 30 ± 9 nM, an EC50 [1, 5] of 29 nM and an EC50 [2, 6] of 0.05 ± 0.011 µM.
For `Cc1nn(C)c(C)c1NS(=O)(=O)c1c(Cl)cc(-c2ccnc(N3CCNCC3)c2)cc1Cl` [DDD85646], the “Effect on intracellular amastigotes at the highest concentration tested” value [1] was “complete killing of the parasites; also recorded: all amastigotes cleared from the macrophages”, the “EC50 intracellular L. donovani amastigotes” value [1, 7] was “n.p” and the EC50 [2, 8] was 8 µM. For the same compound, the “LD50 bone marrow derived macrophages” value ([3]; 72 h) was >45 µM.
For `Cc1nn(C)c(C)c1NS(=O)(=O)c1c(Cl)cc(-c2ccnc(N3CCN(C)CC3)c2)cc1Cl` [DDD86211], the “Effect on intracellular amastigotes at the highest concentration tested” value [1] was “complete killing of the parasites; also recorded: all amastigotes cleared from the macrophages”, the “EC50 intracellular L. donovani amastigotes” value [1, 7] was “n.p” and the EC50 [2, 9] was 0.18 µM. The “LD50 bone marrow derived macrophages” value ([3]; female, BALB/c, mouse, 72 h) was >45 µM.
`Cc1nn(C)c(C)c1N(C(F)F)[S+](=O)([O-])c1c(Cl)cc(-c2ccnc(N3CCNCC3)c2)cc1Cl` [DDD100887] was tested, and the EC50 ([1]; NMT inhibitors, 72 h in infected macrophages, n.p. = not possible, read-out: EC50 intracellular L. donovani amastigotes) was 190 nM, the EC50 [2, 9] was 0.66 µM and the “LD50 bone marrow derived macrophages” value ([3]; female, BALB/c, mouse, 72 h) was 23 µM.
With `CN1CCC(N(C)c2nc(N(C)CCC#N)c3sccc3n2)CC1` [IMP-0000083] the “Activity in the intracellular assay (in words)” value [1] was “no activity”, the EC50 [2, 9] was 24 µM and the “Cellular (leishmanicidal) activity in words” value [2] was “moderate cellular activity”. The “Host cell toxicity (in words)” value [3] was “no toxicity to host cells”, the “LD50 bone marrow derived macrophages” value ([3]; 72 h) was >45 µM and the “Concentration up to which no host cell cytotoxicity was seen” value ([3]; female, BALB/c, mouse, 72 h) was “at least 45 µM”. The IC50 (L. donovani NMT) was 281 nM and the “Fold less potent in inhibition of LdNMT than IMP-0000195” value (L. donovani NMT; relative to IMP-0000195) was ~4 fold.
`N[C@@H](CC(=O)N1C[C@H](CO)[C@@H](c2ccc(Cl)cc2)C1)Cc1ccc(Cl)cc1` [IMP-0000195] was tested, and the EC50 [2, 9] was 12 µM, the “LD50 bone marrow derived macrophages” value ([3]; female, BALB/c, mouse, 72 h) was 12 µM and the “Host cell toxicity (in words)” value ([3]; macrophages) was “equally toxic to macrophages; also recorded: host cell toxicity and no selectivity”. For the same compound, the IC50 (L. donovani NMT; read-out: IC50 L. donovani NMT) was 76.5 nM.
With `c1cncc(CCNCc2cccc(-c3cccc(CN4CCc5ncsc5C4)c3)c2)c1` [IMP-0000197] the “Activity in the intracellular assay (in words)” value [1] was “no activity”, the EC50 [2, 9] was 16 µM and the “Cellular (leishmanicidal) activity in words” value [2] was “moderate cellular activity”. The “Concentration up to which no host cell cytotoxicity was seen” value [3] was “at least 45 µM” and the “LD50 bone marrow derived macrophages” value ([3]; female, BALB/c, mouse, 72 h) was 50 µM.
In the case of `O=C(Cc1ccc(F)cc1)Nc1ccc2[nH]cc(C3CCNCC3)c2c1` [IMP-0000556], the EC50 [2, 8] is reported as > 30 µM, the “Cellular (leishmanicidal) activity in words” value [2] is reported as “did not result in any leishmanicidal activity” and the “LD50 bone marrow derived macrophages” value ([3]; female, BALB/c, mouse, 72 h) is reported as >45 µM.
With `CCCCCCCCCCCCCCCCOP(=O)([O-])OCC[N+](C)(C)C` [Miltefosine, miltefosine] the EC50 [1, 4] was 1380 ± 60 nM, the EC50 [1, 5] was 1450 nM and the EC50 [2, 6] was 7.85 ± 0.5 µM.
